ChEMBL document CHEMBL1201862, “PubChem BioAssay data set” (2004)
Calls of active or inactive are those of the source.

Columns and labels:
[1] = target: T1, E3 ubiquitin-protein ligase XIAP (Homo sapiens, UniProt P98170); test: Counter Screen using XIAP-Bir3 of the Chemical Antagonists of IAP-family anti-apoptotic proteins confirmation assay. [Related pubchem assays (depositor defined):AID1018, AID1449, AID1513, AID1638, AID1749, AID1750, AID488957, AID488963]
[2] = target: T1, E3 ubiquitin-protein ligase XIAP; test: Chemical Antagonists of IAP-family anti-apoptotic proteins confirmation. [Related pubchem assays (depositor defined):AID1018, AID1513, AID1514, AID1638, AID1749, AID1750, AID488957, AID488963]
Leucine aminopeptidase = target: T2, Leucine aminopeptidase (Plasmodium falciparum 3D7, UniProt Q8IL11); test: P. falciparum M17LAP inhibitors, primary screen, biochemical, fluorogenic H-Leu-NHMec substrate, 1536-well (AID 1619); assay type: functional
T2 sequence (Q8IL11 whole entry): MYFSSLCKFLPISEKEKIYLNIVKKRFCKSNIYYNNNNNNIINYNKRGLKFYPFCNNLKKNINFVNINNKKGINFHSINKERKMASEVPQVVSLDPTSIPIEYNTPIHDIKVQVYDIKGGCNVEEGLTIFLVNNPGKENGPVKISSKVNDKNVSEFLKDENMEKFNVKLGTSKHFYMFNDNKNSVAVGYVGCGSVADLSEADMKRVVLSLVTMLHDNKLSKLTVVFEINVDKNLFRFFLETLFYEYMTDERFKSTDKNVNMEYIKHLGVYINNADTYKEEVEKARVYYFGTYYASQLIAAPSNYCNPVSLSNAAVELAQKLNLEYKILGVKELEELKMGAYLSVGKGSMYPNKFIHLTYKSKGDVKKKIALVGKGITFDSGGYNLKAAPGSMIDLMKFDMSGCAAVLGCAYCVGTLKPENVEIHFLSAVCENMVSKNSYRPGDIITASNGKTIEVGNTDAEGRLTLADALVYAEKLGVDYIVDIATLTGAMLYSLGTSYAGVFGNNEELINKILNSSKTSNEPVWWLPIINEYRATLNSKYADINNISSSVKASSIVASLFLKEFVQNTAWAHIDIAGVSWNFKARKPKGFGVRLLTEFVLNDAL

[3] = target: T3, Probable nicotinate-nucleotide adenylyltransferase (Staphylococcus aureus (strain N315), UniProt P65502); assay type: functional, Staphylococcus aureus subsp. aureus N315; details: read-out: IC50_Mean;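 as to IC50 Mean: confirmatory dose-response retesting of NadD inhibitor hits first found in an ultra-high-throughput screen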
T3 sequence (P65502 whole entry): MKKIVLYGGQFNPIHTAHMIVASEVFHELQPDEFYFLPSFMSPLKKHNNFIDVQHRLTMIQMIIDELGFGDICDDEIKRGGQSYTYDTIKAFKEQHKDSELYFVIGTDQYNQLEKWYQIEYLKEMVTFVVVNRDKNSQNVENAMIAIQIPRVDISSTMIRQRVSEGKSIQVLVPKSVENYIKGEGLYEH

Cannabinoid receptor 2 [4] = target: T4, Cannabinoid receptor 2 (Homo sapiens, UniProt P34972); test: SAR analysis of agonists of the Cannabinoid Receptor 2 using an Image-Based Assay - Set 3. [Related pubchem assays (depositor defined):AID2013, AID2026]; assay type: functional
T4 sequence (P34972 whole entry): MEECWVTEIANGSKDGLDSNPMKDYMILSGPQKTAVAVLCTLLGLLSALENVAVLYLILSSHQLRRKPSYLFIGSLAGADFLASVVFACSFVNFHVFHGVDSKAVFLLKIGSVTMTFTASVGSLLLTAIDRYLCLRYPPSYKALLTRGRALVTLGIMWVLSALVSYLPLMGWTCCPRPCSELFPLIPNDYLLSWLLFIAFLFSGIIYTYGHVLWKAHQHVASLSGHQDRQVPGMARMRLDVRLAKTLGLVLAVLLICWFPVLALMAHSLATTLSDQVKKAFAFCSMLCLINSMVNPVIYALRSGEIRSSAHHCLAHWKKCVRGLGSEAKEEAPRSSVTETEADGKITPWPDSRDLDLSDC

Cannabinoid receptor 1 [5] = target: T5, Cannabinoid receptor 1 (Homo sapiens, UniProt P21554); test: SAR analysis of antagonists of the Cannabinoid Receptor 1 using an Image-Based Assay - Set 4. [Related pubchem assays (depositor defined):AID2013, AID2026]; assay type: functional
[6] = target: G-protein coupled receptor 55 (Homo sapiens, UniProt Q9Y2T6); test: SAR Analysis of Selective Antagonists of GPR55 using an Image-Based Assay - Set 4. [Related pubchem assays (depositor defined):AID2013, AID2026]; assay type: functional;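 also: antagonism of response to 5 µM lysophosphatidylinositol agonist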
Cannabinoid receptor 1 [7] = target: T5, Cannabinoid receptor 1; test: SAR analysis of agonists of the Cannabinoid Receptor 1 using an Image-Based Assay - Set 4. [Related pubchem assays (depositor defined):AID2013, AID2026]; assay type: functional
Cannabinoid receptor 2 [8] = target: T4, Cannabinoid receptor 2; test: SAR analysis of antagonists of the Cannabinoid Receptor 2 using an Image-Based Assay - Set 3. [Related pubchem assays (depositor defined):AID2013, AID2026]; assay type: functional
[9] = target: T3, Probable nicotinate-nucleotide adenylyltransferase; assay type: functional, Staphylococcus aureus subsp. aureus N315
[10] = target: T6, G-protein coupled receptor 35 (Homo sapiens, UniProt Q9HC97); test: SAR analysis of Antagonists of the GPR35 Receptor using an Image-Based Assay - Set 6. [Related pubchem assays (depositor defined):AID2013, AID2026]; assay type: functional
T6 sequence (Q9HC97 whole entry): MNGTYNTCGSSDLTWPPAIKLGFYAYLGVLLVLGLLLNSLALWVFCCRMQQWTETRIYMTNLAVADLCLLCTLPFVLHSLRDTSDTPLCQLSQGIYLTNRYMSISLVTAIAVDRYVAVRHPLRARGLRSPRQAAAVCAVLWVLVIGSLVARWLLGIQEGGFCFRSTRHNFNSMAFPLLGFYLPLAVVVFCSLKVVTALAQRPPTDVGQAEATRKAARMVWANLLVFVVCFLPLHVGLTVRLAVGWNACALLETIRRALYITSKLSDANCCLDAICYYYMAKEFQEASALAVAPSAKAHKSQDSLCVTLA

[11] = target: Induced myeloid leukemia cell differentiation protein Mcl-1 (Homo sapiens, UniProt Q07820); assay type: functional
Sequence of Induced myeloid leukemia cell differentiation protein Mcl-1 (Q07820 whole entry): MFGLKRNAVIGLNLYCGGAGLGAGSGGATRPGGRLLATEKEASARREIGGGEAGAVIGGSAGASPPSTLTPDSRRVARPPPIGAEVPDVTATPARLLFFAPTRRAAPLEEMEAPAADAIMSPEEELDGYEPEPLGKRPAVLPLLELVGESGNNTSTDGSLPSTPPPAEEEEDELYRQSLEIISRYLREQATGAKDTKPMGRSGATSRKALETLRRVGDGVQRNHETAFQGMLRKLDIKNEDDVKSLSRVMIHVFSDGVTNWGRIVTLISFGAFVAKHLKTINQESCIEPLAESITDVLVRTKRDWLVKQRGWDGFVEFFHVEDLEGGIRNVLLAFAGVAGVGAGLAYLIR

[12] = target: T6, G-protein coupled receptor 35; test: SAR analysis of Agonists of the GPR35 Receptor using an Image-Based Assay - Set 4. [Related pubchem assays (depositor defined):AID2013, AID2026]; assay type: functional
[13] = Luminescence Cell-Based Dose Retest to Confirm Inhibitors of Cancer Stem Cells. [Related pubchem assays (depositor defined):AID2717, AID2721]; assay type: functional; details: Homo sapiens
Fatty acid synthase [14] = target: T7, Fatty acid synthase (Homo sapiens, UniProt P49327); test: FAS thioesterase domain inhibitors, dose response, biochemical, kinetic fluorescence intensity (AID 624326); assay type: functional;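 also: rate of fluorescence rise from hydrolysis of a fluorogenic O-methyl fluorescein ester substrate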
T7 sequence (P49327 whole entry, the tested form may be a part): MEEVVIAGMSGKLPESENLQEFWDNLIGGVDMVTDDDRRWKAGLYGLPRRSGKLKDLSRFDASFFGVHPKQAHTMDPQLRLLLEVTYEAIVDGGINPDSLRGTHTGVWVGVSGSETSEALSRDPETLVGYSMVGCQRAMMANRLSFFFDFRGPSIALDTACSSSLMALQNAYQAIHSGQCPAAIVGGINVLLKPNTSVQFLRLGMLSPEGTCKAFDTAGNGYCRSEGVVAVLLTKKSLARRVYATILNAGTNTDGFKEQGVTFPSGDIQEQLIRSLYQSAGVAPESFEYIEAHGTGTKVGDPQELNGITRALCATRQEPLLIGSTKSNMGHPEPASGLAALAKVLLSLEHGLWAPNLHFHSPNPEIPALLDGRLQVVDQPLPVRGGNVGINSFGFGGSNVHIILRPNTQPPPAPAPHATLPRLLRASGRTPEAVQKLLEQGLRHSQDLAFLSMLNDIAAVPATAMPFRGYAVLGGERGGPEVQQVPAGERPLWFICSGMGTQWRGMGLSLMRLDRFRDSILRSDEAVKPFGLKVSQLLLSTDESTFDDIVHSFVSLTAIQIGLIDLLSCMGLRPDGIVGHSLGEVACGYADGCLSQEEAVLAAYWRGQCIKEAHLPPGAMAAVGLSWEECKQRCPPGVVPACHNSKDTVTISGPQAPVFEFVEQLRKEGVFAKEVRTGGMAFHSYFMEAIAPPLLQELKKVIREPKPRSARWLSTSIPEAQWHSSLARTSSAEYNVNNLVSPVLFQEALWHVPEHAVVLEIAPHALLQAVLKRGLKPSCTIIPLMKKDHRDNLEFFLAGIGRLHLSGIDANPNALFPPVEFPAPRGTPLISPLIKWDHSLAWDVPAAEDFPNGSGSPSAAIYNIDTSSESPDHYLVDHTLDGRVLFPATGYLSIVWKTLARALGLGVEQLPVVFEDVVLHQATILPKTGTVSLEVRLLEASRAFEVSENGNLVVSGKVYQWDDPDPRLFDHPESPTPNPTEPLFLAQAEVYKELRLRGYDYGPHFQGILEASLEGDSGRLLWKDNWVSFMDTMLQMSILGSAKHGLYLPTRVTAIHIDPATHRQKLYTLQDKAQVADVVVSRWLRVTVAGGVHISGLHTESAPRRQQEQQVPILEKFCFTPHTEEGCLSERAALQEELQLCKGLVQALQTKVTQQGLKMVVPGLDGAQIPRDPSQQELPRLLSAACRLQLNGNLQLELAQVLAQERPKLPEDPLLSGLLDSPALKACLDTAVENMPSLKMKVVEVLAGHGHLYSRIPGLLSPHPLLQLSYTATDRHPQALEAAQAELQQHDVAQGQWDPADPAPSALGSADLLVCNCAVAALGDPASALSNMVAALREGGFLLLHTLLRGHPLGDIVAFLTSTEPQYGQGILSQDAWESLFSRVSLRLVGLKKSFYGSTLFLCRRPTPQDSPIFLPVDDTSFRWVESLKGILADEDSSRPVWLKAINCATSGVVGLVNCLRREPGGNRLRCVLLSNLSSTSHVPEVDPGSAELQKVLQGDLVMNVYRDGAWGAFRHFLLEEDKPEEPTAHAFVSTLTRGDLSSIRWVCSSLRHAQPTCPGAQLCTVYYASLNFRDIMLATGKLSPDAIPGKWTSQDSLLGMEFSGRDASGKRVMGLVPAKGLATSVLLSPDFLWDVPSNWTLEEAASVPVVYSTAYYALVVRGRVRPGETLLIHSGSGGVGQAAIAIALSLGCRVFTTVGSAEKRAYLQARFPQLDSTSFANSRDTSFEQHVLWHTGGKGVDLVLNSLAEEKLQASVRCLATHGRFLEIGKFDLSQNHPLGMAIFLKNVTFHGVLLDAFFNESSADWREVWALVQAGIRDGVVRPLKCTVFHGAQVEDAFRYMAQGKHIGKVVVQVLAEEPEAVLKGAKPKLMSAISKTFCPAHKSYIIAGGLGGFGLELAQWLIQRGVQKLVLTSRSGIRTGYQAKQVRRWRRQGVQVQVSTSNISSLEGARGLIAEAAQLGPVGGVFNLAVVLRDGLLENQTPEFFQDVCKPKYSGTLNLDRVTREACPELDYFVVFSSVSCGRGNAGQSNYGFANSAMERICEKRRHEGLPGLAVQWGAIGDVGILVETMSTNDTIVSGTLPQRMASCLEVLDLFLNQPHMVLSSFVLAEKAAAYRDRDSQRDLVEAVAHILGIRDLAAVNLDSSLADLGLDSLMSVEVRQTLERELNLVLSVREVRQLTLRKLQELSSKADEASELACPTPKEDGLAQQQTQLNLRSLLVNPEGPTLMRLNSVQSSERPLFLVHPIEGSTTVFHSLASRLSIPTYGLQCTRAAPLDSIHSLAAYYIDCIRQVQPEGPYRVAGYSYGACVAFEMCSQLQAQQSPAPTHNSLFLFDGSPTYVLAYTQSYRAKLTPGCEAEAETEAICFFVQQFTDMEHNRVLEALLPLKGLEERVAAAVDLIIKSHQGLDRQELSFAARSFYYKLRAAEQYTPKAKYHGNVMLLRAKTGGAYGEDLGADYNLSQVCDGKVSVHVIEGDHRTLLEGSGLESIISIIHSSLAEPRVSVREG

[15] = target: T8, Replicative DNA helicase DnaB (Mycobacterium tuberculosis, UniProt P9WMR3); test: DnaB intein splicing inhibitors, dose response, biochemical, cell-free fluorescence (AID 449749); assay type: functional
T8 sequence (P9WMR3 whole entry): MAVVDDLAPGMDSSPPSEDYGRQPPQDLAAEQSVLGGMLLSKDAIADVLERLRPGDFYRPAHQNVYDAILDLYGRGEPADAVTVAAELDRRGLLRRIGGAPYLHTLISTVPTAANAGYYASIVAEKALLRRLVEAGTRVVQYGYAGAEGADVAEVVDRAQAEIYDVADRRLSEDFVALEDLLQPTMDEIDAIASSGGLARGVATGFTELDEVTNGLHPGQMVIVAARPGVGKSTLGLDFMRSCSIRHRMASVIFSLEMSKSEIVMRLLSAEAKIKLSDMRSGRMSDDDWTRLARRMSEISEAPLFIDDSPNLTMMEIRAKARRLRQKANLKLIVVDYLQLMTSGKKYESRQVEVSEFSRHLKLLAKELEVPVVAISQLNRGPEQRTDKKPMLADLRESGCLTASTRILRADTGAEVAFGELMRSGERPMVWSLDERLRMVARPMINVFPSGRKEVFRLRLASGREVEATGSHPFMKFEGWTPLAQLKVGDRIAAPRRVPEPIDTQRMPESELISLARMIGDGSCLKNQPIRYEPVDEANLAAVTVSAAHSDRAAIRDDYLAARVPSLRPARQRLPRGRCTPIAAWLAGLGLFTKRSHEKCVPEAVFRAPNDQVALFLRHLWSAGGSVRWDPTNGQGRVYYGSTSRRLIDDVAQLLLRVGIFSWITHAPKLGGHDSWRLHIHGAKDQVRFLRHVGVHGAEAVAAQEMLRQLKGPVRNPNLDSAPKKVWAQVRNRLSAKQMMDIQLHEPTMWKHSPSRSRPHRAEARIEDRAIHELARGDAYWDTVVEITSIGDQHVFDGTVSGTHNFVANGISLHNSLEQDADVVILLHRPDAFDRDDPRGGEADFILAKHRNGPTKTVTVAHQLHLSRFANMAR

Fatty acid synthase [16] = target: T7, Fatty acid synthase; test: FAS thioesterase domain inhibitors, dose response, biochemical, endpoint fluorescence intensity, uHTS hits (AID 624327); assay type: functional;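 also: fluorescence from hydrolysis of an O-methyl fluorescein acyl ester substrate by the enzyme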
Protein RecA = target: T9, Protein RecA (Mycobacterium tuberculosis, UniProt P9WHJ3); test: Fluorescence Cell-Free Homogeneous Dose Retest to Identify Inhibitors of RecA-Intein Splicing Activity. [Related pubchem assays (depositor defined):AID2097, AID2223, AID489010, AID492950]; assay type: functional
T9 sequence (P9WHJ3 whole entry): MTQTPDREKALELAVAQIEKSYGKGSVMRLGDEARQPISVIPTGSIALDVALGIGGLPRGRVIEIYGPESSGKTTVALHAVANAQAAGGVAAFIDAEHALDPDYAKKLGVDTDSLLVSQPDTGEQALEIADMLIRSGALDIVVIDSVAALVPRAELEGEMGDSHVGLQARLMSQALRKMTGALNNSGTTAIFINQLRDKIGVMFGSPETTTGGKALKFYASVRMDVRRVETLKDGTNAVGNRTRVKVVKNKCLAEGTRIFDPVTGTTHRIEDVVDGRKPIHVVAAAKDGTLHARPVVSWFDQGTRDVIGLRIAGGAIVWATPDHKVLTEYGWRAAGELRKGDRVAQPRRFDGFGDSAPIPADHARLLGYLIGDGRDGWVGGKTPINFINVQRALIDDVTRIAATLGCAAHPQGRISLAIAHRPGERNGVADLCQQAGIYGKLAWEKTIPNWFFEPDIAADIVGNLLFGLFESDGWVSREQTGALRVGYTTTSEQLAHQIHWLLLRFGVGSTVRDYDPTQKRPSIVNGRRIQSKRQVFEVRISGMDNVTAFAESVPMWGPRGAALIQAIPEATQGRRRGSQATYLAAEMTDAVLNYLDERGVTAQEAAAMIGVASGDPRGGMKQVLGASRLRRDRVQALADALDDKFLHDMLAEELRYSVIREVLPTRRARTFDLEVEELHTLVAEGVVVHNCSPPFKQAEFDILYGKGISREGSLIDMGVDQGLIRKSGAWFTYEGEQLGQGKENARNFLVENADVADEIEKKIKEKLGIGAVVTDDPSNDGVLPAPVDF

[17] = Intein inhibitors as potential Tuberculosis drugs, a cytotoxicity screen. [Related pubchem assays (depositor defined):AID2221, AID2223, AID434968, AID435010, AID449749, AID449750, AID489010]; assay type: functional
[18] = target: T10, Runt-related transcription factor 1/Core-binding factor subunit beta (Homo sapiens, UniProt Q01196+Q13951); test: inhibitors of RUNX1 Runt–CBFb-SMMHC binding, primary screen, biochemical, FRET, Cerulean-Runt, Venus-CBFb-SMMHC, uHTS (AID 1434); assay type: protein assay;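 also: partner is the CBFb-SMMHC leukemia fusion protein rather than wild-type CBFb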
T10 sequence (Q01196 whole entry, the tested form may be a part): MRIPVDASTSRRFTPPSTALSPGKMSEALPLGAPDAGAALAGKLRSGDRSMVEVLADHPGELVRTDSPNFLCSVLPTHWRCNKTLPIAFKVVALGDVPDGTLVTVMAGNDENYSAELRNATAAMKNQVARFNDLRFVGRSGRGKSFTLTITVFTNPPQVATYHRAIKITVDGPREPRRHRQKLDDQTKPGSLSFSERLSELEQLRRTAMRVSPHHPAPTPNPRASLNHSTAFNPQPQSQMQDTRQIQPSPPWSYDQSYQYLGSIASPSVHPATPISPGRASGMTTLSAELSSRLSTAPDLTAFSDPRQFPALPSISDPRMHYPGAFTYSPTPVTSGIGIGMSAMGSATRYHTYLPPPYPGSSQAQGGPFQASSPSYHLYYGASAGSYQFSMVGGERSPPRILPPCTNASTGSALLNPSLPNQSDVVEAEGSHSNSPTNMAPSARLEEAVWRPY
T10 sequence (Q13951 whole entry, the tested form may be a part): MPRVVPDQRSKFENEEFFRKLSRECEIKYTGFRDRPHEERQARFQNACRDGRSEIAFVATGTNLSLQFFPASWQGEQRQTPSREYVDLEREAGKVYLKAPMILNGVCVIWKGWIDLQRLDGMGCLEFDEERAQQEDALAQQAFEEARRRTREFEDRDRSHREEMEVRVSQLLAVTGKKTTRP

[19] = target: T10, Runt-related transcription factor 1/Core-binding factor subunit beta; test: inhibitors of RUNX1 Runt–CBFb-SMMHC binding, biochemical, TR-FRET (AID 1438); assay type: protein assay
[20] = HEp-2 cell cytotoxicity, dose response, cytotoxicity control for RSV inhibitor project, HTS (AID 2410); assay type: functional; details: human respiratory syncytial virus
SUMO-activating enzyme = SUMO-activating enzyme (Homo sapiens, UniProt Q9UBT2); test: SUMOylation inhibitor hit validation, confirmation, SUMOylation inhibitor project, biochemical, AlphaScreen (AID 2018); assay type: functional

T1 sequence (P98170 whole entry): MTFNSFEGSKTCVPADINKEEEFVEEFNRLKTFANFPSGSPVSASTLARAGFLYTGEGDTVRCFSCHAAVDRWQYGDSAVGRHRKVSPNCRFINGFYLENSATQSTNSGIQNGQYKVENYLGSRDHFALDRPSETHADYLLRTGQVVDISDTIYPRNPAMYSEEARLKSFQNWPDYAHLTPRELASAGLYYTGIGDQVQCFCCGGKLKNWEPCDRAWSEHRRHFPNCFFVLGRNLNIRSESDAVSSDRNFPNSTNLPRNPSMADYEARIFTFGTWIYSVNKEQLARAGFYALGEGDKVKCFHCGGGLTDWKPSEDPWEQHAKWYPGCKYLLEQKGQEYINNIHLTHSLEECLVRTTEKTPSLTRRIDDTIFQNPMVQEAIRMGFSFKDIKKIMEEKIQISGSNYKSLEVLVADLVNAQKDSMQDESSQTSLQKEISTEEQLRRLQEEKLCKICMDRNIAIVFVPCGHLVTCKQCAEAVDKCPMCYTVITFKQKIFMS

O=C(O)[C@H](Cc1ccccc1)N1Cc2ccccc2C1=O
IC50 [1]: > 200 µM (inactive) | IC50 [2]: 131 µM (inactive) | IC50 (Leucine aminopeptidase): 6.47 µM (active)

O=C(Nc1ccc(S(=O)(=O)Nc2nccs2)cc1)c1cc(-c2ccncc2)nc2ccccc12
IC50 [3]: 21.6 µM (active) | EC50 (Cannabinoid receptor 2 [4]): > 32 µM (inactive) | IC50 (Cannabinoid receptor 1 [5]): 2.23 µM (active) | IC50 [6]: > 32 µM (inactive) | EC50 (Cannabinoid receptor 1 [7]): > 32 µM (inactive) | IC50 (Cannabinoid receptor 2 [8]): > 32 µM (inactive) | IC50 [9]: 6.6 µM (active) | IC50 [10]: > 32 µM (inactive) | IC50 [11]: 1.64 µM (active) | EC50 [12]: > 32 µM (inactive)

CC(NC(=O)COC(=O)c1cc(NS(=O)(=O)c2ccc(Cl)c([N+](=O)[O-])c2)ccc1O)C1CC2CCC1C2 (centres undefined)
AC50 [13]: 3.17 µM (active) | IC50 (Fatty acid synthase [14]): 11.7 µM (active) | AC50 [15]: 2.01 µM (active) | IC50 (Fatty acid synthase [16]): 11.1 µM (active) | EC50 (Protein RecA): 3.7 µM (active) | CC50 [17]: 32.7 µM (active)

Cc1ccc(Cn2c(=N)c(C(=O)NCc3ccco3)cc3c(=O)n4ccccc4nc32)cc1
IC50 [18]: 0.475 µM (active) | IC50 [19]: 15.3 µM (active) | IC50 [11]: 3.14 µM (active)

CCCCCCC#Cc1cncc(C(=O)NNC(=O)Nc2cc(Cl)cc(Cl)c2)c1
CC50 [20]: 9.35 µM (active) | IC50 (SUMO-activating enzyme): 59.8 µM (active)
